Experiments:
[1] = for solubility, bis(diphenylphosphino) series: acetonitrile or glacial acetic acid (GAA)
[2] = Vapor-liquid-equilibrium (VLE) test: iodide measured in the condensed vapor phase (suppression of HI volatilization); type: physicochemical
[3] = FTIR P═O stretching frequency in acetonitrile as a gauge of basicity; type: physicochemical; conditions: lower frequency = higher basicity
Protocol: FTIR analyses were carried out on a Nicolet 6700 FTIR spectrometer equipped with a 3 bounce zinc selenide (ZnSe) attenuated total reflectance (ATR) crystal assembly. 0.1 mL aliquots of solution were removed from samples via micro-syringe. The solution was then placed on the crystal and an FTIR spectrum was obtained.

[4] = pKb (basicity) of Group 15 oxides
[5] = additive 0.05 molar, 0.1M HI, 1.3M H2O (2 wt %), GAA, approximately 140° C.
[6] = additive 0.1 molar, 0.1M HI, 1.3M H2O (2 wt %), GAA, approximately 140° C.

| SMILES | HI (ppm in vapor) [2, 5] | HI (ppm in vapor) [2, 6] [ppm] | P═O, cm^−1 [3] | other results |
| --- | --- | --- | --- | --- |
| c1ccc(P(CCCCP(c2ccccc2)c2ccccc2)c2ccccc2)cc1 |  |  |  | solubility, bis(diphenylphosphino) series [1]: insoluble |
| c1ccc(P(CCCCCCP(c2ccccc2)c2ccccc2)c2ccccc2)cc1 |  |  |  | solubility, bis(diphenylphosphino) series [1]: insoluble |
| O=P(CP(=O)(c1ccccc1)c1ccccc1)(c1ccccc1)c1ccccc1 [Bis-DPPMeO2, bis(diphenylphosphino)methane dioxide] | 7,889 ppm | 876 | 1,197.7 cm^−1 |  |
| O=P(CCCCCP(=O)(c1ccccc1)c1ccccc1)(c1ccccc1)c1ccccc1 [Bis-DPPPeO2, bis(diphenylphosphino)pentane dioxide] | 5,392 ppm | 683 | 1,178.2 cm^−1 |  |
| O=P(CCCP(=O)(c1ccccc1)c1ccccc1)(c1ccccc1)c1ccccc1 [Bis-DPPPrO2, bis(diphenylphosphino)propane dioxide] | 6,291 ppm | 421 | 1,180.8 cm^−1 |  |
| O=P(CCCP(=O)(c1ccccc1)c1ccccc1)(c1ccccc1)c1ccccc1 [Bis-DPPPrO] |  |  | 1,180.0 cm^−1 |  |
| O=P(CP(=O)(C1CCCCC1)C1CCCCC1)(C1CCCCC1)C1CCCCC1 [Bis-DiCyPMeO2] |  |  | 1,160.1 cm^−1 |  |
| O=[As](c1ccccc1)(c1ccccc1)c1ccccc1 [Ph3AsO, triphenyl arsine oxide] |  |  |  | HI (ppm in vapor) ([2]; Table 5, additive 0.25 molar, 1:1 molar ratio of additive to HI): 1,132 ppm; effectiveness in suppressing volatilization of HI relative to the CMPO ([2]; equivalent molarity, Table 5 conditions): about 7 times; solubility in GAA upon addition of HI ([1]; HI added): soluble; solubility in GAA ([1]; without added HI): soluble; pKb [4]: 4.15 |
| O=P(c1ccccc1)(c1ccccc1)c1ccccc1 [TPPO, triphenylphosphine oxide, reference compound] |  |  | 1,191.6 cm^−1 |  |

From US20240279144A1, “CONTROL OF IODIDES IN ACETIC ACID PRODUCTION” (LyondellBasell Acetyls, LLC, priority 2023, published 2024)
